“And” between values parts separate entries of the source, which are not always exact repeats. Equal entries are not always repeated. Inconclusive results and toxic doses are left out. Cut-off read from the data, not from the text of the source: active = T/C of 150% or more; inactive = T/C below 125%.
Tested on: L1210 leukemia ip in BDF1 mice, survival T/C
Experiment: NCI In Vivo Anticancer Drug Screen. Data for tumor model L1210 Leukemia (intraperitoneal) in B6D2F1 (BDF1) mice
Conditions: endpoint: mean survival time, higher = longer survival
How it was run: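 In this screen, tumor-bearing mice given compound are compared to those given vehicle, and their survival values are reported as a treated-to-control quotient.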

[1] = dose: 100.0 mg/kg/injection, schedule: Q01DX001 (ip), vehicle: saline
[2] = dose: 200.0 mg/kg/injection, schedule: Q01DX001 (ip), vehicle: saline
[3] = dose: 400.0 mg/kg/injection, schedule: Q01DX001 (ip), vehicle: saline
[4] = dose: 100.0 mg/kg/injection, schedule: Q04DX003 (ip), vehicle: saline
[5] = dose: 200.0 mg/kg/injection, schedule: Q04DX003 (ip), vehicle: saline
[6] = dose: 400.0 mg/kg/injection, schedule: Q04DX003 (ip), vehicle: saline
[7] = dose: 100.0 mg/kg/injection, schedule: Q04DX003 (ip), vehicle: Klucel (hydroxypropylcellulose) (HPC)
[8] = dose: 200.0 mg/kg/injection, schedule: Q04DX003 (ip), vehicle: Klucel (hydroxypropylcellulose) (HPC)
[9] = dose: 400.0 mg/kg/injection, schedule: Q04DX003 (ip), vehicle: Klucel (hydroxypropylcellulose) (HPC)
[10] = dose: 100.0 mg/kg/injection, schedule: Q04DX002 (ip), vehicle: saline with Tween-80
[11] = dose: 200.0 mg/kg/injection, schedule: Q04DX002 (ip), vehicle: saline with Tween-80
[12] = dose: 400.0 mg/kg/injection, schedule: Q04DX002 (ip), vehicle: saline with Tween-80
[13] = dose: 100.0 mg/kg/injection, schedule: Q01DX009 (ip), vehicle: saline with Tween-80
[14] = dose: 200.0 mg/kg/injection, schedule: Q01DX009 (ip), vehicle: saline with Tween-80
[15] = dose: 400.0 mg/kg/injection, schedule: Q01DX009 (ip), vehicle: saline with Tween-80

Measured: T/C

CCOC(C)(C)C
inactive: [1] 97 % of control | [2] 103 % of control | [3] 106 % of control

OCCCCCCCCCCCO
inactive: [4] 100 % of control | [5] 93 % of control | [6] 93 % of control

CCCCCCSc1ccccn1
inactive: [4] 101 % of control | [5] 107 % of control | [6] 96 % of control

CCOC(=O)c1ccccc1NC(OCC)C(=O)c1ccccc1 (stereo not drawn) (tested in a mixture with another compound)
inactive: [1] 96 % of control | [2] 97 % of control | [3] 103 % of control

CCOC(=O)COc1cc(Cl)c(S(=O)(=O)F)cc1Cl
inactive: [7] 96 % of control | [8] 104 % of control | [9] 91 % of control

ClC(Cl)=C(c1ccc(Cl)cc1)c1ccc(Cl)cc1
inactive: [1] 101 % of control | dose: 100.0 mg/kg/injection, schedule: Q04DX002 (ip), vehicle: gum acacia 114 % of control | [2] 110 % of control | dose: 200.0 mg/kg/injection, schedule: Q04DX002 (ip), vehicle: gum acacia 91 % of control | [3] 98 % of control | dose: 400.0 mg/kg/injection, schedule: Q04DX002 (ip), vehicle: gum acacia 100 % of control

CC(=O)C(C)=O
inactive: dose: 100.0 mg/kg/injection, schedule: Q04DX003 (ip), vehicle: saline with Tween-80 95 % of control | dose: 200.0 mg/kg/injection, schedule: Q04DX003 (ip), vehicle: saline with Tween-80 101 % of control | dose: 400.0 mg/kg/injection, schedule: Q04DX003 (ip), vehicle: saline with Tween-80 106 % of control

O=C(NCCCl)n1cncn1
inactive: dose: 100.0 mg/kg/injection, schedule: Q01DX009 (ip), vehicle: acetone 100 % of control | dose: 100.0 mg/kg/injection, schedule: Q04DX003 (ip), vehicle: acetone 102 % of control | dose: 200.0 mg/kg/injection, schedule: Q01DX009 (ip), vehicle: acetone 92 % of control | dose: 200.0 mg/kg/injection, schedule: Q04DX003 (ip), vehicle: acetone 102 % of control | dose: 400.0 mg/kg/injection, schedule: Q01DX009 (ip), vehicle: acetone 103 % of control | dose: 400.0 mg/kg/injection, schedule: Q04DX003 (ip), vehicle: acetone 102 % of control

[Co].[NH-]CC[N-]CCO.[NH-]CC[N-]CCO
inactive: dose: 25.0 mg/kg/injection, schedule: Q01DX009 (ip), vehicle: saline 100 % of control | dose: 50.0 mg/kg/injection, schedule: Q01DX009 (ip), vehicle: saline 102 % of control | dose: 50.0 mg/kg/injection, schedule: Q04DX003 (ip), vehicle: saline 108 % of control | [4] 105 % of control

COc1cc(OC)cc(-n2cccc2)c1
inactive: [10] 90 % of control | [11] 97 % of control | [12] 87 % of control

CCCCCCCCCCCCCCCCCCO
inactive: [13] 99 % of control | [14] 92 % of control | [15] 87 % of control

c1ccc2ocnc2c1
inactive: [7] 94 % of control | [8] 96 % of control | [9] 113 % of control

CCOC(=O)c1cc2nc(C(C)C)n(Cc3ccccc3)c2cc(C(=O)OCC)c1=O
inactive: dose: 100.0 mg/kg/injection, schedule: Q01DX001 (ip), vehicle: Klucel (hydroxypropylcellulose) (HPC) 96 % of control | dose: 100.0 mg/kg/injection, schedule: Q01DX009 (ip), vehicle: Klucel (hydroxypropylcellulose) (HPC) 104 % of control and 89 % of control | dose: 100.0 mg/kg/injection, schedule: Q04DX002 (ip), vehicle: Klucel (hydroxypropylcellulose) (HPC) 98 % of control and 105 % of control | [7] 97 % of control | dose: 200.0 mg/kg/injection, schedule: Q01DX001 (ip), vehicle: Klucel (hydroxypropylcellulose) (HPC) 91 % of control | dose: 200.0 mg/kg/injection, schedule: Q01DX009 (ip), vehicle: Klucel (hydroxypropylcellulose) (HPC) 97 % of control and 89 % of control | dose: 200.0 mg/kg/injection, schedule: Q04DX002 (ip), vehicle: Klucel (hydroxypropylcellulose) (HPC) 96 % of control | [8] 100 % of control | dose: 400.0 mg/kg/injection, schedule: Q01DX001 (ip), vehicle: Klucel (hydroxypropylcellulose) (HPC) 100 % of control | dose: 400.0 mg/kg/injection, schedule: Q01DX009 (ip), vehicle: Klucel (hydroxypropylcellulose) (HPC) 98 % of control | dose: 400.0 mg/kg/injection, schedule: Q04DX002 (ip), vehicle: Klucel (hydroxypropylcellulose) (HPC) 88 % of control and 89 % of control | [9] 100 % of control

CN(C(=O)CCC(=O)N(C)c1ccccc1)c1ccccc1
inactive: [13] 97 % of control | [14] 87 % of control

C/C=C1\C(=O)C2CCC1C2 (stereo not drawn)
inactive: dose: 100.0 mg/kg/injection, schedule: Q01DX001 (ip), vehicle: carboxymethylcellulose (CMC) 93 % of control | dose: 200.0 mg/kg/injection, schedule: Q01DX001 (ip), vehicle: carboxymethylcellulose (CMC) 90 % of control | dose: 400.0 mg/kg/injection, schedule: Q01DX001 (ip), vehicle: carboxymethylcellulose (CMC) 95 % of control

CN(N(P(c1ccccc1)c1ccccc1)P(c1ccccc1)c1ccccc1)P(c1ccccc1)c1ccccc1
inactive: dose: 100.0 mg/kg/injection, schedule: Q01DX001 (ip), vehicle: steriod suspending solution 110 % of control | dose: 400.0 mg/kg/injection, schedule: Q01DX001 (ip), vehicle: steriod suspending solution 94 % of control

O=S(=O)(CCCl)CCc1ccccc1
inactive: [10] 96 % of control | [11] 89 % of control | [12] 93 % of control

CCCCCCCCCCCCCCCCC(C(=O)O)C(O)(CC(=O)O)C(=O)O (stereo not drawn)
inactive: dose: 19.0 mg/kg/injection, schedule: Q01DX Z (ip), vehicle: carboxymethylcellulose (CMC) 92 % of control | dose: 37.5 mg/kg/injection, schedule: Q01DX Z (ip), vehicle: carboxymethylcellulose (CMC) 92 % of control | dose: 75.0 mg/kg/injection, schedule: Q01DX Z (ip), vehicle: carboxymethylcellulose (CMC) 86 % of control and 87 % of control | dose: 150.0 mg/kg/injection, schedule: Q01DX Z (ip), vehicle: carboxymethylcellulose (CMC) 88 % of control

CCCCC/C(=N/N)c1ccc2cc3c(cc2c1)CCCC3
inactive: [1] 97 % of control | [2] 95 % of control | [3] 90 % of control

CCN1CCC(c2ccccc2)(c2ccccc2)C1=N
inactive: dose: 75.0 mg/kg/injection, schedule: Q01DX001 (ip), vehicle: carboxymethylcellulose (CMC) 89 % of control

C=CCC1(OC(C)=O)CCN(C)CC1
inactive: dose: 75.0 mg/kg/injection, schedule: Q01DX001 (ip), vehicle: saline 113 % of control

CC(C)=CC(=O)Nc1cccc(O)c1
inactive: [13] 96 % of control | [14] 91 % of control | [15] 92 % of control

CC(O)Cc1c[nH]c(=O)[nH]c1=O (stereo not drawn)
inactive: dose: 100.0 mg/kg/injection, schedule: Q01DX009 (ip), vehicle: water 98 % of control | dose: 100.0 mg/kg/injection, schedule: Q04DX003 (ip), vehicle: water 94 % of control | dose: 200.0 mg/kg/injection, schedule: Q01DX009 (ip), vehicle: water 107 % of control | dose: 200.0 mg/kg/injection, schedule: Q04DX003 (ip), vehicle: water 98 % of control | dose: 400.0 mg/kg/injection, schedule: Q01DX009 (ip), vehicle: water 96 % of control | dose: 400.0 mg/kg/injection, schedule: Q04DX003 (ip), vehicle: water 93 % of control
